This is an account of results in patent US8563717B2, “Adenine derivatives” (GlaxoSmithKline LLC, priority 2008, dated 2013).

Structures can show the parent of a compound that is named as a salt.

This test relates to Interferon-α. Put plainly: Induction of Interferon-α using cryopreserved human PBMCs. It is filed as cell-based. To be noted: PBMC, 24 h incubation, normalised to 1 uM resiquimod, read-out: mean pEC50 for induction of IFN-α (converted). Put shortly:
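Cryopreserved healthy-donor PBMCs at 1×10^6 cells/ml in RPMI/10% FCS with 1000 units/ml IFN-gamma, exposed 24 h at 37 °C to 11-point two-fold compound dilutions. Supernatant IFN-α quantified by MSD electrochemiluminescence immunoassay; pEC50 from 4-parameter fit, normalised to 1 uM resiquimod and DMSO.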
Turning to `CCCCOc1nc(N)c2[nH]c(=O)n(CCCCCC3CCN(CC)CC3)c2n1` [Example 123, 6-Amino-2-(butyloxy)-9-[5-(1-ethyl-4-piperidinyl)pentyl]-7,9-dihydro-8H-purin-8-one], the EC50 was below 1580 nM.
With `CCCCOc1nc(N)c2[nH]c(=O)n(CCCCCC3CCN(CCC)CC3)c2n1` [Example 124, 6-Amino-2-(butyloxy)-9-[5-(1-propyl-4-piperidinyl)pentyl]-7,9-dihydro-8H-purin-8-one], the EC50 is below 1580 nM.
Regarding `CCCCOc1nc(N)c2[nH]c(=O)n(CCCCCC3CCN(C(C)C)CC3)c2n1` [Example 125, 6-Amino-2-(butyloxy)-9-{5-[1-(1-methylethyl)-4-piperidinyl]pentyl}-7,9-dihydro-8H-purin-8-one], the EC50 was below 1580 nM.
As to `CCCCOc1nc(N)c2[nH]c(=O)n(CCCCCC3CCN(CCCC)CC3)c2n1` [Example 126, 6-Amino-2-(butyloxy)-9-[5-(1-butyl-4-piperidinyl)pentyl]-7,9-dihydro-8H-purin-8-one], the EC50 was below 1580 nM.
With `CCCCOc1nc(N)c2[nH]c(=O)n(CCCCCC3CCN(CC(C)C)CC3)c2n1` [Example 127, 6-Amino-2-(butyloxy)-9-{5-[1-(2-methylpropyl)-4-piperidinyl]pentyl}-7,9-dihydro-8H-purin-8-one hydrochloride], the EC50 was below 1580 nM.
As for `CCCCOc1nc(N)c2[nH]c(=O)n(CCCCCC3CCN(CCC(C)C)CC3)c2n1` [Example 128, 6-amino-2-(butyloxy)-9-{5-[1-(3-methylbutyl)-4-piperidinyl]pentyl}-7,9-dihydro-8H-purin-8-one], the EC50 is below 1580 nM.
In the case of `CCCCOc1nc(N)c2[nH]c(=O)n(CCCCCC3CCN(C4CCCC4)CC3)c2n1` [Example 129, 6-Amino-2-(butyloxy)-9-[5-(1-cyclopentyl-4-piperidinyl)pentyl]-7,9-dihydro-8H-purin-8-one], the EC50 is below 1580 nM.
Regarding `CCCCOc1nc(N)c2[nH]c(=O)n(CCCCCC3CCN(CC4CCCC4)CC3)c2n1` [Example 130, 6-Amino-2-(butyloxy)-9-{5-[1-(cyclopentylmethyl)-4-piperidinyl]pentyl}-7,9-dihydro-8H-purin-8-one hydrochloride], the EC50 is below 1580 nM.
Take `CCCCOc1nc(N)c2[nH]c(=O)n(CCCCCC3CCN(CCC4CCCCC4)CC3)c2n1` [Example 131, 6-Amino-2-(butyloxy)-9-{5-[1-(2-cyclohexylethyl)-4-piperidinyl]pentyl}-7,9-dihydro-8H-purin-8-one hydrochloride]: the EC50 was below 1580 nM.
For the molecule `CCCCOc1nc(N)c2[nH]c(=O)n(CCCCCCC3CCNCC3)c2n1` [Example 132, 6-Amino-2-(butyloxy)-9-[6-(4-piperidinyl)hexyl]-7,9-dihydro-8H-purin-8-one hydrochloride], the EC50 was below 1580 nM.
Consider `CCCCOc1nc(N)c2[nH]c(=O)n(CCCCCCC3CCN(CC)CC3)c2n1` [Example 133, 6-Amino-2-(butyloxy)-9-[6-(1-ethyl-4-piperidinyl)hexyl]-7,9-dihydro-8H-purin-8-one], for which the EC50 was below 1580 nM.
With `CCCCOc1nc(N)c2[nH]c(=O)n(CCCCCCC3CCN(C(C)C)CC3)c2n1` [Example 134, 6-Amino-2-(butyloxy)-9-{6-[1-(1-methylethyl)-4-piperidinyl]hexyl}-7,9-dihydro-8H-purin-8-one] the figure was below 1580 nM.
